Assay results taken from patent US20070116820A1, “EDIBLE GEL COMPOSITIONS COMPRISING HIGH-POTENCY SWEETENERS” (THE COCA-COLA COMPANY, priority 2005, published 2007).

Experiments:
[1] = Rate of dissolution of rebaudioside A polymorph and amorphous forms in H2O at 25° C.; assay type: physicochemical
[2] = assay type: physicochemical
Method: A solution of rebaudioside A (>97% pure by HPLC ) was prepared in double distilled water (12.5 gm in 50 mL, 25% concentration) by stirring the mixture at 40° C. for 5 minutes. An amorphous form of rebaudioside A was formed by immediately using the clear solution for spray drying with the Lab-Plant spray drier SD-04 instrument (Lab-Plant Ltd., West Yorkshire, U.K.). The solution was fed through the feed pump into the nozzle atomizer which atomized it into a spray of droplets with the help of a constant flow of nitrogen/air. […] This dry powder (11-12 g, H2O 6.74%) was discharged continuously from the drying chamber and was collected in a bottle.

Rate of dissolution in H2O at 25° C. ([1]; per 60 minutes) | Rate of dissolution in H2O at 25° C. ([1]; per 5 minutes) | solubility in water at room temperature [2] [%] | Substance
(<0.2%/ %/60 minutes | – | – | rebaudioside A [Form 1]
– | (<30%/ %/5 minutes | – | rebaudioside A [Form 2]
– | High (>30%/ %/5 minutes | – | rebaudioside A [Form 3]
– | High (>35.0%/ %/5 minutes | > 35.0 | rebaudioside A [Form 4]
